Experiment [1] has as its system E. coli CFT073-pTOPO. Kind of experiment: MIC, broth microdilution (EUCAST). It is filed as cell-based, Escherichia coli. As to conditions: at least three experiments. Here is the method:
(§1) The MICs of Pep16 and colistin were determined by the broth microdilution method in accordance with the EUCAST guidelines (www.eucast.org, accessed on 2 September 2022). In order to investigate for the presence of a potential inoculum effect in vitro, MICs were performed with various inoculum sizes, increasing from 10^5 to 10^7 CFU/mL. To explore MIC variations in the presence of albumin, MICs were also determined in Mueller–Hinton broth (MHB) supplemented with 4% human albumin.
On the technique in general: Broth dilution looks for growth in wells or tubes with falling amounts of substance.

Another experiment has as its system E. coli B119. The experiment in a line: MIC, broth microdilution (EUCAST). In kind it is cell-based, Escherichia coli. As to conditions: B119, inoculum 10^5 CFU/mL. Here is the method:
as §1

For experiment [2], the system named is E. coli CFT073-pTOPO-COLR. The experiment in a line: MIC, broth microdilution (EUCAST). In kind it is cell-based, Escherichia coli. Here is the method:
as §1

A further experiment relates to E. coli Af31. Kind of experiment: MIC, broth microdilution (EUCAST). In kind it is cell-based, Escherichia coli. Here is the method: as §1
For experiment [3], the system named is E. coli CFT073-pTOPO. It is filed as in vivo, mice. As to conditions: peritonitis due to CFT073-pTOPO; for mean bacterial counts in the spleen / mice that died before the planned time of the sacrifice: single s.c. dose 2 h after inoculation: Pep16 10 mg/kg, colistin 10 mg/kg, cefotaxime 100 mg/kg, or colistin 10 + Pep16 10 mg/kg; for mice that died before the planned time of the sacrifice: planned sacrifice 3, 6, 12 h. Here is the method:
(§2) Animal experiments were performed in accordance with the prevailing regulations and ethical requirements of the Direction of Veterinary Services of Paris. The experimental protocol was approved by the French Ministry of Research and by the Ethics Committee for Animal Experiments (No. APAFIS 22330-2019092415325730). Animals were housed in regulation cages and given free access to food and water. Swiss ICR-strain female mice weighing 25 to 30 g were used.
We used the lethal murine intraperitoneal infection model previously developed by our group. Mice were inoculated by the intraperitoneal route with 250 μL of a bacterial suspension in porcine mucin 10% (Sigma–Aldrich), corresponding to a final inoculum of approximately 2.5 × 10^7 CFU/mL. The strains tested were CFT073-pTOPO and CFT073-pTOPO-COLR. Two hours after inoculation, at least three mice per strain were sacrificed to determine the pre-therapeutic bacterial loads, referred to as start-of-treatment controls, since all untreated mice died within 12 h (data not shown), preventing the use of end-of-treatment controls. Each treatment group was composed of 9 mice, which were administered a single dose of antibiotic (or of a combination of antibiotics) subcutaneously 2 h after inoculation. The treatment groups were Pep16 10 mg/kg, colistin 10 mg/kg, cefotaxime 100 mg/kg, and Pep16 10 mg/kg + colistin 10 mg/kg. Doses of cefotaxime and colistin were chosen based on previous pharmacokinetic analysis, while the dose of Pep16 was chosen based on the present survival study and pharmacokinetic analysis. In each treatment group, mice were sacrificed by 200 µL of pentobarbital 40% (Euthasol VetVR, Dechra Veterinary Products, Montigny-Le-Bretonneux, France) in a sequential way: 3 mice 3 h after treatment, 3 mice 6 h after treatment, and 3 mice 12 h after treatment. Immediately after death, the spleens were extracted and homogenized. Samples were plated on LB agar. To detect resistant mutants after treatment with colistin, samples were also plated on LB agar containing colistin at 4× MIC. The MICs of colistin-resistant mutants were determined (see above). Colony counts were then determined after 48 h of culture. Endpoints were spontaneous death (before the planned time of the sacrifice), bacterial counts in the spleen, and the emergence of colistin-resistant mutants. The assessment criteria of the murine model were: (i) mortality rate; (ii) bacterial counts in peritoneal fluid (PF) and the spleen; and (iii) the selection of colistin-resistant mutants after 24 h of treatment.

In experiment [4] the test system is E. coli CFT073-pTOPO-COLR. Kind of experiment: Murine peritoneal infection model. In kind it is in vivo, mice. As to conditions: peritonitis due to CFT073-pTOPO-COLR; single s.c. dose: Pep16 10 mg/kg, colistin 10 mg/kg, or colistin 10 + Pep16 10 mg/kg. Here is the method: as §2
We used the lethal murine intraperitoneal infection model previously developed by our group. Mice were inoculated by the intraperitoneal route with 250 μL of a bacterial suspension in porcine mucin 10% (Sigma–Aldrich), corresponding to a final inoculum of approximately 2.5 × 10^7 CFU/mL. The strains tested were CFT073-pTOPO and CFT073-pTOPO-COLR. Two hours after inoculation, at least three mice per strain were sacrificed to determine the pre-therapeutic bacterial loads, referred to as start-of-treatment controls, since all untreated mice died within 12 h (data not shown), preventing the use of end-of-treatment controls. Each treatment group was composed of 9 mice, which were administered a single dose of antibiotic (or of a combination of antibiotics) subcutaneously 2 h after inoculation. […] The MICs of colistin-resistant mutants were determined (see above). Colony counts were then determined after 48 h of culture. […]

Experiment [5] has as its system E. coli CFT073-pTOPO. The experiment in a line: Flow cytometry study of membrane permeability (Live/Dead BacLight, SYTO9/PI). In kind it is cell-based, Escherichia coli. As to conditions: 30 min exposure, 10^6 CFU/mL; colistin 0.25 mg/L (0.25x MIC), Pep16 16 mg/L (0.25x MIC), alone or combined; positive control 90% ethanol; D/M = Q3/(Q1+Q2+Q3). In general terms: A flow cytometer gives signals particle by particle.
Procedure: Flow cytometry was used to investigate membrane permeability after exposure to antibiotics. Experiments were executed on a Fortessa X-20 flow cytometer (Becton Dickinson, Le Pont de Claix, France) equipped with a 488 nm laser. Exponentially growing E. coli CFT073-pTOPO cells at 10^6 CFU/mL were obtained and incubated with colistin and/or Pep16 at 0.25× MIC during 30 min. […] The samples were centrifuged and reconstituted in phosphate-buffered saline twice. Cells were then stained by using a Live/Dead BacLight kit (Molecular Probes, Invitrogen, Cergy-Pontoise, France) as previously shown [20]. The kit consists of two fluorescent intercalating agents, propidium iodide (PI) and SYTO9, which both stain nucleic acids. The green-fluorescing SYTO9 is able to enter all cells when used alone, whereas the red-fluorescing PI only enters cells with damaged cytoplasmic membranes. The appropriate mixture of the SYTO9 and PI stains enables differentiation between bacteria with intact cytoplasmic membranes and dead bacteria with permeabilized cytoplasmic membranes. Optical filters were set up such that red fluorescence was measured at 635 nm and green fluorescence was measured at 500 nm. The proportion of dead cells (colored in red)/marked cells (colored in red and/or green) was retrieved for each condition. A minimum of 50,000 events per condition were recorded.

Experiment [6] relates to colistin-resistant mutants of E. coli CFT073-pTOPO and B119. Kind of experiment: MIC for colistin-resistant mutants selected in time-kill curves. As to conditions: mutants after 24 h of exposure to colistin alone in time-kill curves. In kind it is cell-based, Escherichia coli. Here is the method: as §1
Time–kill curves were performed with Pep16 (4–128 mg/L) and colistin (0.5–8 mg/L) alone or in combination. Exponentially growing E. coli cells were incubated in 10 mL of Mueller–Hinton broth to obtain 10^6 CFU/mL with Pep16 and/or colistin. Viable counts were enumerated by plating 100 μL of appropriate culture dilutions on to lysogeny broth (LB) agar plates after 0, 1, 3, 6, and 24 h of incubation at 37 °C and expressed in log10 CFU/mL. The lower limit of detection was 1 log10 CFU/mL. A bactericidal effect is defined as a 3 log10 decrease in CFU counts compared with the initial inoculum. A synergistic effect is defined as a 2 log10 decrease in CFU counts between the combination and its most-active constituent after 24 h. […] The MICs of colistin-resistant mutants after 24 h of colistin monotherapy were determined (see above). […]

≈ marks a conversion by molar mass, not a printed value. Like-named read-outs stand apart in the source and are kept apart here.

Here are results for 2 compounds from publication PMC9854584, “Synergistic Activity of Pep16, a Promising New Antibacterial Pseudopeptide against Multidrug-Resistant Organisms, in Combination with Colistin against Multidrug-Resistant Escherichia coli, In Vitro and in a Murine Peritonitis Model” (Antibiotics, 2023).

What is called MIC is the least concentration at which growth counts as inhibited. As to `CO/N=C(\C(=O)N[C@@H]1C(=O)N2C(C(=O)O)=C(COC(C)=O)CS[C@H]12)c1csc(N)n1` [Cefotaxime, cefotaxime], the minimal inhibitory concentration (MIC) was 0.06 µg/mL (≈ 0.132 µM) in the experiment on E. coli CFT073-pTOPO [1] (Escherichia coli, CFT073PTOPO, inoculum 10^5 CFU/mL); 1 µg/mL (≈ 2.2 µM) in the experiment on E. coli CFT073-pTOPO [1] (Escherichia coli, CFT073PTOPO, inoculum 10^6 CFU/mL); 8 µg/mL (≈ 17.6 µM) against E. coli CFT073-pTOPO [1] (Escherichia coli, CFT073PTOPO, inoculum 10^7 CFU/mL); 0.06 µg/mL (≈ 0.132 µM) in the experiment with E. coli B119 (Escherichia coli, read-out: MIC); 0.06 µg/mL (≈ 0.132 µM) in experiment [2] (Escherichia coli); 0.06 µg/mL (≈ 0.132 µM) in the experiment with E. coli Af31 (Escherichia coli, AF31). The “mean bacterial counts in the spleen” value with E. coli CFT073-pTOPO [3] was 3.6 × 10^6 CFU/g. Also, the “mice that died before the planned time of the sacrifice” value in the experiment on E. coli CFT073-pTOPO [3] is 0/9.

As to colistin sulfate, the minimum inhibitory concentration (MIC) with E. coli CFT073-pTOPO [1] (inoculum 10^5 CFU/mL) was 1 µg/mL; against E. coli CFT073-pTOPO [1] (inoculum 10^6 CFU/mL), 2 µg/mL; against E. coli CFT073-pTOPO [1] (inoculum 10^7 CFU/mL) it was 32 µg/mL; against E. coli B119, 1 µg/mL; in experiment [2] (CFT073-pTOPO-COLR, inoculum 10^5 CFU/mL), 16 µg/mL; against E. coli Af31 (Af31 (mcr-1 plasmid), inoculum 10^5 CFU/mL), 8 µg/mL. Moreover, the “mean bacterial counts in the spleen” value in experiment [4] was 4.0 × 10^8 CFU/g; in the experiment on E. coli CFT073-pTOPO [3] it was 2.7 × 10^8 CFU/g. In addition, the figures for the “mice that died before the planned time of the sacrifice” value (in experiment [4]; in the experiment with E. coli CFT073-pTOPO [3]) were 5/9 and 1/9, respectively. Also, the “proportion of mice with colistin-resistant mutants” value with E. coli CFT073-pTOPO [3] (colistin 10 mg/kg alone or with Pep16 10 mg/kg) was 9/9. The “mean counts of colistin-resistant mutants in the spleens” value in the experiment on E. coli CFT073-pTOPO [3] (colistin 10 mg/kg alone or with Pep16 10 mg/kg, LB agar with colistin at 4x MIC) is reported as 1.6 × 10^3 CFU/g. Also, in the experiment with E. coli CFT073-pTOPO [5], the “percentage of dead cells/marked cells (D/M)” value is listed as 60%. The “MIC of colistin-resistant mutants” value in experiment [6] lay in the range of 8 to 16 µg/mL.
